Data on 37 compounds can be found in US5177075A, “Substituted dihydroisoquinolinones and related compounds as potentiators of the lethal effects of radiation and certain chemotherapeutic agents; selected compounds, analogs and process” (priority 1991, dated 1993).

Structures can show the parent of a compound that is named as a salt.

T1 sequence (P18493 whole entry): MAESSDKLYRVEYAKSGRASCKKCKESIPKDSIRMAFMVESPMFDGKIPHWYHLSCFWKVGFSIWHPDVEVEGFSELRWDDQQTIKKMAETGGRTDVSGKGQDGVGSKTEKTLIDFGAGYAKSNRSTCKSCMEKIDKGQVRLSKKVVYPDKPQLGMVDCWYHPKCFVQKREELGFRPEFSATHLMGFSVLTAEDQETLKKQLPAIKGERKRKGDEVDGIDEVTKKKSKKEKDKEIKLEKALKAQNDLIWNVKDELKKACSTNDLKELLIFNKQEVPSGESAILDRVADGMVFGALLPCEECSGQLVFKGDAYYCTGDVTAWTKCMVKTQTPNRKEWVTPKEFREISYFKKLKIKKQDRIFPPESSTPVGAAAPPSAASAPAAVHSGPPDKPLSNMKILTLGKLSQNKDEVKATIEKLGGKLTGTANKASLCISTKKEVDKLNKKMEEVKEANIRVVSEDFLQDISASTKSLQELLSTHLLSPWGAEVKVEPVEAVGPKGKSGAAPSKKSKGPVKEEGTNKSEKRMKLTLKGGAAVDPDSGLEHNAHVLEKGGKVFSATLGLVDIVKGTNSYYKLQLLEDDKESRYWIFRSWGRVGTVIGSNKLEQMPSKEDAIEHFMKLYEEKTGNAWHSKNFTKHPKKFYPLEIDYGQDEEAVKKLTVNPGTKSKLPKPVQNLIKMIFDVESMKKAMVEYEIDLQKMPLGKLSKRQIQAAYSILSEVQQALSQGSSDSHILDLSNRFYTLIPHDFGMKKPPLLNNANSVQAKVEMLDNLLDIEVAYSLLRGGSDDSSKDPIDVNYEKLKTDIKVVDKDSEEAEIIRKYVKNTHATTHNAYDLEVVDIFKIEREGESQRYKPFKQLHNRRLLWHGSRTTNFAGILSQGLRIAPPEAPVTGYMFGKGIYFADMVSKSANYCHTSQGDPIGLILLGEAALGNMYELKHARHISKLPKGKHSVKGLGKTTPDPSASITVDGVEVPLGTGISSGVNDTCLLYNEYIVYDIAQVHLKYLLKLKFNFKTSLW

In the first assay the test system is L1210 cells. The assay can be described thus: Inhibition of the repair of radiation-induced DNA damage as assessed by alkaline elution. In kind it is cell-based. As to conditions: L1210 cells, 10 Gy x-rays, class symbols. On the procedure: Inhibition of the Repair of Radiation-Induced DNA Damage as Assessed by Alkaline Elution The basic alkaline elution assay is carried out according to the procedure of K. W. Kohn, […]. Erickson, and L. A. Zwelling in DNA Repair: A Laboratory Manual of Research Procedures (eds. E. C. Freidburg and […]) with slight modifications. Briefly, suspension cultures of exponentially growing L1210 cells (total of 4×10^6 cells) are labeled with 0.02 μCi/ml of [^14 C] thymidine plus 1 nmol/ml of unlabeled thymidine for 24 hours prior to use. L1210 cells used as an internal standard are grown in media supplemented with 0.1 μCi/ml of [^3 H]thymidine and 1 nmol/ml unlabeled thymidine. For the elution protocol cells are removed from the culture flasks, centrifuged, and resuspended in fresh media. Drug treatment for experimental cells is for one hour at 37°. After the treatment period control and drug-treated cells are given a dose of 10 Gy of x-rays and incubated at 37° C. for 10 minutes to allow for repair. Samples consisting of 5×10^5 cells contained in 5 ml of ice cold PBS are deposited directly on 25 mm polycarbonate filters (2 micron pore size). The cells are washed with 5 ml of cold PBS, then lysed by the addition of 5 ml of lysis solution (0.2% SDS, 0.25M tetrasodium EDTA pH 9.7). All procedures commencing at the time of lysis are carried out in the dark. Subsequent to lysis samples are treated with 2 ml of lysis solution containing proteinase-K (0.5 mg/ml) for one hour. The filters are then eluted with tetrapropyl ammonium hydroxide/0.025M EDTA (free acid form)/0.1% SDS, pH 12.1, at a constant flow rate of 0.037 ml/min. Fractions of 2 ml are collected in scintillation vials. […] To each fraction collected and the filter solution 15 ml of modified Ready-Gel scintillation fluid containing 0.7% acetic acid is added. The frequency of single-stranded DNA breakage was calculated as described by Kohn, et al. The data is corrected for the number of single-strand breaks in the […] samples (~20%).
As to `CCc1cccc2c1CCNC2=O` [XV, 5-Ethyl-3,4-dihydro-1(2H)-isoquinolinone], the “Frequency of Unrepaired Strand Breaks” value was “+ (101-200)”.
Take `Cl.Nc1cccc2c1CCNC2=O` [IX, 5-Amino-3,4-dihydro-1(2H)-isoquinolinone, monohydrochloride]: the “Frequency of Unrepaired Strand Breaks” value is “+++ (301-400)”.

In another assay the test system is V79 cells. In words: In vitro radiosensitizing activity at 37°: shoulder modifying effects (reduction in Dq). The format is cell-based. Conditions: hypoxic V79 cells, class symbols. On the procedure: The shoulder region represents the inherent repair capabilities of a given cell line. […] To determine the hypoxic x-ray dose response, cells are rendered hypoxic four hours prior to the addition of the test compound by placing them in a 37° C. incubator within an anaerobic glove chamber (Forma). […] Drug is added (0.1 ml into 2 ml media in petri dish) within the anaerobic chamber and drug treatment is at the highest nontoxic dose for one hour at 37°. The oxic x-ray dose response is determined in a similar manner except that all manipulations are carried out in air. […] Cytotoxicity controls (drug only, no irradiation) are included as well as oxic and hypoxic untreated controls (irradiation only, no drug). Immediately following irradiation, cells are rinsed twice with 2 ml fresh media prior to the addition of 5 ml of fresh media. The cells are then incubated at 37° C. After six days, dishes are stained with crystal violet and colonies of 50 or more cells are counted to determine percent surviving cells versus x-ray dose. […] This is expressed by percent reduction in Dq where Dq is defined as the dose at the intersection of the regression line for the logarithmic portion of the survival curve with the 100% survival level. This is taken to represent the width of the shoulder region of the survival curve.
Regarding `CCc1cccc2c1CCNC2=O` [XV, 5-Ethyl-3,4-dihydro-1(2H)-isoquinolinone], the “Shoulder Modification (% Reduction in DQ)” value was “- (1-14%)”.
On to `Nc1cccc2c(=O)[nH]ccc12` [Example VIII, 5-Amino-1(2H)-isoquinolinone], for which the “Shoulder Modification (% Reduction in DQ)” value is “- (1-14%)”.
On the same count and under the same terms, under `Cl.Nc1cccc2c1CCNC2=O` [IX, 5-Amino-3,4-dihydro-1(2H)-isoquinolinone, monohydrochloride] stands “- (1-14%)”; under `O=C1NCCc2c(OCC(O)CN3CCCCC3)cccc21` (stereo not shown) [Example IV, 3,4-Dihydro-5-[2-hydroxy-3-(1-piperidinyl)propoxy]-1(2H)-isoquinolinone], “+++ (≥45%)”.

A further assay has as its target T1, Poly(ADP-ribose) synthetase (Bos taurus, UniProt P18493).
T1 construct: Poly (ADP-ribose) synthetase from calf thymus; from tissue; host or cells: calf thymus
The assay can be described thus: Inhibition of Poly(ADP-ribose) synthetase. In kind it is biochemical, calf.
Conditions: not given
Compound `O=C1NCCc2c(OCCCCN3CCCCC3)cccc21` [XXXIV, 3,4-Dihydro-5-[4-(1-piperidinyl)butoxy]-1(2H)-isoquinolinone] registered an IC50 of 0.8 µM.

The same assay, now with this note: 30° C., 15 minutes, [3H]NAD; read-out: IC50.
`CCCOc1cccc2c1CCNC2=O` [XXXVI, 3,4-Dihydro-5-propoxy-1(2H)-isoquinolinone]: the IC50 was 0.11 µM.
On the same count and under the same terms, to `CNCC(O)COc1cccc2c1CCNC2=O` (stereo not shown) [XXXI, 3,4-Dihydro-5-[2-hydroxy-3-(methylamino)propoxy]-1(2H)-isoquinolinone] belongs 0.2 µM; to `CCc1cccc2c1CCNC2=O` [XV, 5-Ethyl-3,4-dihydro-1(2H)-isoquinolinone], 1 µM; to `CNCCCOc1cccc2c1CCNC2=O` [XXXII, 3,4-Dihydro-5-[3-methylamino)propoxy]-1(2H)-isoquinolinone hydrochloride], 0.33 µM.
The same measure, in the same setting: under `COc1cccc2c1CCN=C2SC` [XVII, 3,4-Dihydro-5-methoxy-1-(methylthio)-isoquinoline] stands 0.58 µM; under `O=c1[nH]cc(Br)c2c(O)cccc12` [Example XXVI, 4-Bromo-5-hydroxy-1(2H)-isoquinolinone], 0.061 µM; under `CC(=O)Oc1cccc2c1CCNC2=O` [Example VI, 5-(Acetyloxy)-3,4-dihydro-1(2H)-isoquinolinone], 2.11 µM.
`COc1cccc2c(=O)[nH]nc(C)c12` [XLII, 5-Methoxy-4-methyl-1(2H)phthalazinone]: the IC50 is 0.08 µM.
With `O=C1NCCc2c(OCCCN3CCCCC3)cccc21` [Example XXVII, 3,4-Dihydro-5-[3-(1-piperidinyl)propoxy]-1(2H)-isoquinolinone], the IC50 was found to be 0.83 µM.
The same measure, in the same setting: to `COc1cccc2c(=O)[nH]c(-c3ccccc3)cc12` [Example XX, 5-Methoxy-3-phenyl-1(2H)-isoquinolinone] belongs 2.12 µM; to `Nc1cccc2c(=O)[nH]ccc12` [Example VIII, 5-Amino-1(2H)-isoquinolinone], 0.24 µM; to `O=C1NCCc2c(OCC(O)COc3ccccc3)cccc21` (stereo not shown) [XXXIX, 3,4-Dihydro-5-(2-hydroxy-3-phenoxypropoxy)-1(2H)-isoquinolinone], 0.65 µM.
In the case of `O=C1NCCc2c(OCC(O)Cc3ccccc3)cccc21` (stereo not shown) [Example XL, 3,4-Dihydro-5-(2-hydroxy-3-phenylpropoxy)-1(2H)-isoquinolinone], the IC50 was 0.34 µM.
Same read-out and setting: under `COc1cccc2c1CCNC2=O` [Example V, 3,4-Dihydro-5-methoxy-1(2H)-isoquinolinone] stands 0.42 µM; under `O=C1NCCc2c(OC[C@@H](O)CN3CCCCC3)cccc21` [L, (S)-3,4-Dihydro-5-[2-hydroxy-3-(1-piperidinyl)propoxy]-1(2H)-isoquinolinone], 0.27 µM.
Same read-out and setting: under `COc1cccc2c(=O)[nH]ccc12` [XIV, 5-Methoxy-1(2H)-isoquinolinone] stands 0.58 µM; under `O=C1NCCc2c(OCc3ccccc3)cccc21` [Example VII, 3,4-Dihydro-5-(phenylmethoxy)-1(2H)-isoquinolinone], 5.2 µM; under `Oc1ncc(Br)c2ccccc12` [XXIII, 4-Bromo-1-isoquinolinol], 0.36 µM.
Same read-out and setting: under `Nc1c[nH]c(=O)c2ccccc12` [Example XXV, 4-Amino-1(2H)-isoquinolinone monohydrochloride] stands 0.66 µM.
In the case of `O=C1NCCc2c(Cl)cccc21` [XVI, 5-Chloro-3,4-dihydro-1(2H)-isoquinolinone], the IC50 came to 0.31 µM.
Still for that read-out and setting: under `O=C1NCCc2c(NCc3ccccc3)cccc21` [Example X, 3,4-Dihydro-5-[(phenylmethyl)amino]-1(2H)-isoquinolinone] stands 2.55 µM.
On the same count and under the same terms, under `O=C1NCCc2c(OCC(O)CN3CCOCC3)cccc21` (stereo not shown) [XXIX] stands 1.5 µM.
Still for that read-out and setting: under `CC(=O)Nc1cccc2c1CCNC2=O` [Example XI, N-(1,2,3,4-Tetrahydro-1-oxo-5-isoquinolinyl)acetamide] stands 56.7 µM.
As to `O=C1NCCc2c(OC[C@H](O)CN3CCCCC3)cccc21` [XLIX, (R)-3,4-Dihydro-5-[2-hydroxy-3-(1-piperidinyl)propoxy]-1(2H)-isoquinolinone], the IC50 was 0.33 µM.
On the same count and under the same terms, under `Cl.Nc1cccc2c1CCNC2=O` [IX, 5-Amino-3,4-dihydro-1(2H)-isoquinolinone, monohydrochloride] stands 0.41 µM.
As to `O=C1NCCc2c(OCCc3ccccc3)cccc21` [XLI, 3,4-Dihydro-5-(phenylethoxy)-1(2H)-isoquinolinone], the half-maximal inhibitory concentration (IC50) was 0.6 µM.
`Cc1cccc2c1CC(C)NC2=O` (stereo not shown) [XVIII, 3,4-Dihydro-3,5-dimethyl-1(2H)-isoquinolinone]: the IC50 came to 0.74 µM.
`CSC1=NCCc2c(C)cccc21` [XIX, 3,4-Dihydro-5-methyl-1-(methylthio)-isoquinoline]: the IC50 worked out at 1.55 µM.
Consider `CCCCOc1cccc2c1CCNC2=O` [XXXVII, 5-Butoxy-3,4-dihydro-1(2H)-isoquinolinone], for which the half-maximal inhibitory concentration (IC50) was 6 µM.
On the same count and under the same terms, to `CN(C)COc1cccc2c1CCNC2=O` [XIII] belongs 0.97 µM; to `O=C1NCCc2c(OCC(O)CN3CCCCC3)cccc21` (stereo not shown) [Example IV, 3,4-Dihydro-5-[2-hydroxy-3-(1-piperidinyl)propoxy]-1(2H)-isoquinolinone], 0.32 µM.
Still for that read-out and setting: under `O=C1NCCc2c(OCC(O)CN3CCCC3)cccc21` (stereo not shown) [XXVIII, 3,4-Dihydro-5-[2-hydroxy-3-(1-pyrrolidinyl)propoxy]-1-(2H)-isoquinolinone] stands 0.77 µM; under `CCOc1cccc2c1CCNC2=O` [XXXV, 5-Ethoxy-3,4-dihydro-1(2H)-isoquinolinone], 2.6 µM.
Same read-out and setting: under `COCC(O)COc1cccc2c1CCNC2=O` (stereo not shown) [XXXVIII, 3,4-Dihydro-5-(2-hydroxy-3-methoxypropoxy)-1(2H)-isoquinolinone] stands 1.5 µM; under `CCN(CC)CC(O)COc1cccc2c1CCNC2=O` (stereo not shown) [XXX], 1 µM.
On to `O=C1NCCc2c(OCCN3CCCCC3)cccc21` [XXXIII, 3,4-Dihydro-5-[2-(1-piperidinyl)ethoxy]-1(2H)-isoquinolinone], for which the IC50 came out at 0.82 µM.
